From US20060111305A1, “Metabolites of certain [1,4]diazepino[6,7,1-ij]quinoline derivatives and methods of preparation and use thereof” (Wyeth, priority 2004, published 2006)

Legend:
[1] = test system: cytochrome P450 (NADPH-dependent metabolism); test: Incubation of [14C]DCDQ with human liver microsomes (Km values, metabolite formation); type: in vitro ADME; conditions: pH 7.4; 0.5 mg/mL human liver microsomes, [14C]DCDQ 0.5-100 μM, NADPH regenerating system, 20 min
Procedure: (§1) [^14C]DCDQ was mixed with non-radiolabeled DCDQ (1:3 or 1:5) in the incubations. Microsomal incubations consisted of [^14C]DCDQ, magnesium chloride (10 mM) and liver microsomes incubated in 0.5 mL of 0.1 M potassium phosphate buffer, pH 7.4. [^14C]DCDQ (20 μL) in water was added to the incubation tubes containing buffer, magnesium chloride solution and microsomes. After mixing, the tubes were pre-incubated for 2 minutes in a shaking water bath at 37° C. The reactions were initiated by the addition of UDPGA or the NADPH regenerating system. UDPGA was added to incubations as a 50 μL aliquot of a 20 mM solution in water, to give a final concentration of 2 mM. An NADPH regenerating system (30 μL) was added to incubations to evaluate CYP450-mediated metabolism. The NADPH regenerating system consisted of glucose-6-phosphate (2 mg/mL), glucose-6-phosphate dehydrogenase (0.8 units/mL) and NADP^+ (2 mg/mL). Control incubations were conducted under the same conditions, but without the NADPH generating system, UDPGA or microsomes. All incubations were performed in duplicate. Incubations were stopped by the addition of 0.5 mL ice-cold methanol. Samples were vortex-mixed. Denatured proteins were separated by centrifugation at 4300 rpm and 4° C. for 10 minutes (Model T21 super centrifuge, Sorvall). The protein pellets were extracted with 0.5 mL of methanol. The supernatant was combined for each sample, mixed and evaporated to a volume of about 0.3 mL under a nitrogen stream in a Zymark TurboVap LV evaporator (Caliper Life Science, Hopkinton, Mass.). The concentrated sample was centrifuged and aliquots were radioassayed and analyzed by HPLC. This method recovered an average of 92.1% of the radioactivity from the reaction mixture.
(§2) Initial rate conditions were determined for DCDQ metabolism in incubations with human liver microsomes in the presence of NADPH or UDPGA. Incubations for the time course study contained 20 μM of [^14C]DCDQ and 0.5 mg/mL of microsomal proteins, and were incubated at 37° C. with mild shaking for 0, 5, 10, 20, 30, 40, 50 and 60 minutes. The protein dependence study was conducted with 20 μM of [^14C]DCDQ incubated for 20 minutes with 0, 0.1, 0.25, 0.5, 0.75 and 1.0 mg/mL of microsomal proteins.
(§3) The Km values were determined with 0.5 mg/mL of human liver microsomes incubated with [^14C]DCDQ for 20 minutes with the NADPH regenerating system or for 10 minutes with UDPGA. [^14C]DCDQ concentrations used were 0.5,1, 5, 10, 25, 50, 75 and 100 μM.
(§4) To evaluate species differences in cytochrome P450- and UGT-mediated metabolism, [^14C]DCDQ was incubated for 20 minutes with 0.5 mg/mL liver microsomal proteins from mice, rats, dogs or humans in the presence of the NADPH regenerating system or UDPGA. The assay conditions were the same as described above, and DCDQ concentrations were 12 μM and 56 μM for cytochrome P450- and UGT-mediated metabolism, respectively.
(§5) A Waters model 2690 HPLC system (Waters Corp., Milford, Mass.) with a built-in autosampler was used for analysis. Separations were accomplished on a Phenomenex Luna C18(2) column (2×150 mm, 5 μm) (Phenomenex, Torrance, Calif.) coupled with a filter (4×2 mm) cartridge. A variable wavelength UV detector set to monitor 250 nm and Flo-One β Model A525 radioactivity flow detector (Perkin Elmer) with a 250 μL LQTR flow cell were used for data acquisition. The flow rate of Ultima Flow M scintillation fluid was 1 mL/min, providing a mixing ratio of scintillation cocktail to mobile phase of 5:1. The sample chamber in the autosampler was maintained at 4° C., while the column was at ambient temperature of about 20° C. The mobile phase consisted of 10 mM ammonium acetate, pH 4.5 (A) and methanol (B) and was delivered at 0.2 mL/min. The linear gradient conditions were as follows: […]

[2] = as above; type: in vitro ADME; conditions: for metabolite detected in microsomal incubation: human
Procedure: as §1, §2, §3, §4, §5

[3] = Dog fecal excretion and metabolite profiles after oral capsule of [14C]DCDQ; type: in vivo, beagle dogs
Procedure: Blood samples were collected from the jugular vein at 2, 4, 8, 24 and 48 hour after dose administration into tubes containing potassium EDTA as the anticoagulant and then placed on ice. Aliquots of 50 μL were removed for combustion and determination of radioactivity content. Plasma was immediately obtained from the remaining blood by centrifugation at 4° C. Urine samples were collected into tubes on dry ice at intervals of 0-8, 8-24 and 24-48 hour post-dose. Fecal samples were collected at intervals of 0-8, 8-24 and 24-48 hour post-dose at room temperature, and were homogenized. The biological specimens were stored at approximately −70° C. until analysis.
Feces were weighed and homogenized in water at a volume-to-weight ratio of about 5:1. Aliquots of blood (200 μL) and fecal homogenates (0.25-0.53 gram) were placed on Combusto-cones with Combusto-pads and combusted. A model 307 Tri-Carb sample oxidizer, equipped with an Oximate-80 robotic automatic sampler (Perkin Elmer), was used for combustion of blood and fecal samples. The liberated ^14CO2 was trapped with Carbo-Sorb E carbon dioxide absorber, mixed with PermaFluor® E+ liquid scintillation cocktail, and counted on a Tri-Carb Model 3100 TR/LL liquid scintillation counter (Perkin Elmer). The efficiency of combustion was 98.9%.
Fecal homogenates were analyzed for metabolite profiles. Aliquots of 1 gram of fecal homogenate were mixed with 2 mL methanol, placed on ice for about 10 minutes and centrifuged. The supernatant was transferred to a clean tube. The residue was extracted three times with 2 mL of a water:methanol (3:7) mixture. The supernatants from each sample were combined, evaporated to about 1 mL, and centrifuged. Extraction efficiency was determined by analyzing aliquots of 10 μL of the supernatant for radioactivity. An aliquot (50-200 μL) of the supernatant was analyzed by HPLC with radioactivity flow detection for metabolite profiles. Samples were also analyzed by LC/MS to characterize the radioactive peaks.
A Waters model 2690 HPLC system (Waters Corp., Milford, Mass.) with a built-in autosampler was used for analysis. Separations were accomplished on a Phenomenex Luna C18(2) column (150×2.0 mm, 5 μm) (Phenomenex, Torrance, Calif.). The sample chamber of the autosampler was maintained at 4° C., while the column was at ambient temperature of about 20° C. A variable wavelength UV detector set to monitor 250 nm and a Flo-One β Model A525 radioactivity detector were used for data acquisition. The HPLC mobile phase consisted of 10 mM ammonium acetate, pH 4.5 (A) and acetonitrile (B), and was delivered at 0.2 mL/min. Chromatographic condition A was used for dose analysis, while condition B was used for analysis of urine and plasma, brain and fecal extracts.

[4] = NADPH regenerating system, 12 μM DCDQ, 20 min

Row | Km at 20 min [1] | metabolite detected in microsomal incubation [2, 4] | metabolite detected in feces [3] | amount of metabolite detected ([2]; human liver microsomes, DCDQ 20 μM, both NADPH and UDPGA) | metabolite detected in microsomal incubation ([2]; UDPGA, 56 μM DCDQ) | SMILES
1 | 10.8 µM | detected | – | – | – | OC1CN2C[C@@H]3CCC[C@@H]3c3cccc(c32)CN1 (stereo partly shown) [Metabolite M1, hydroxy DCDQ]
2 | 8.9 to 13.8 µM | detected | detected | – | – | OC1[C@@H]2CCC[C@@H]2c2cccc3c2N1CCNC3 (stereo partly shown) [Metabolite M2, hydroxy DCDQ]
3 | 36.2 µM | detected | – | – | – | [O-][N+]12CCN=Cc3cccc(c31)[C@H]1CCC[C@H]1C2 (stereo partly shown) [Metabolite M5, DCDQ imine N-oxide]
4 | – | – | not detected | only minor amounts | detected | O=C(O)[C@H]1O[C@@H](OC(=O)N2CCN3C[C@@H]4CCC[C@@H]4c4cccc(c43)C2)[C@H](O)[C@@H](O)[C@@H]1O [Metabolite M6, carbamoyl glucuronide of DCDQ]
